# Results: patent US9481636B2, “N-benzylaniline derivative and uses thereof” (Nanjing Medical University, priority 2011, dated 2016)
# What was measured:
# [1] = tested on: NMDAR-mediated pathological NO release; settings: Nature Medicine 2010, 16, 1439-1443; cited from earlier work
# [2] = tested on: glutamate-induced neuronal injury; settings: Nature Medicine 2010, 16, 1439-1443; cited from earlier work
# [3] = tested on: middle cerebral artery occlusion (MCAO) and reperfusion; settings: Nature Medicine 2010; cited from earlier work
# [4] = tested on: learning and memory impairment, behavioral abnormalities; settings: in vivo; cited from earlier work
# [5] = tested on: mechanical hyperalgesia and thermal hyperalgesia; settings: pain models in rodents; Brit. J. Pharmacol., 2009, 158, 494-506; cited from earlier work
# [6] = tested on: capsaicin-induced mechanical and thermal hyperalgesia; settings: intrathecal injection, Neuropharmacology, 2005, 48, 325; cited from earlier work
# [7] = tested on: complete Freund's adjuvant (CFA)-induced muscle hyperalgesia; settings: intramuscular injection; dose-dependent; Neuroreport, 2005, 16, 485; cited from earlier work
# [8] = tested on: OGD-injuried neurons (primary cortical neurons); assay: Cell viability assay: LDH release by OGD-injured primary cortical neurons; type: cell-based, mice; settings: drug concentration 10^−6 M/L; OGD 2 hours, LDH after 8 hours
# Method in brief: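 Day-9 primary cortical neurons were serum-starved overnight, pretreated with compound for 30 min, then held 2 h in glucose-free medium under anaerobic oxygen-glucose deprivation. After 8 h reoxygenation in normal medium, LDH activity in culture medium and freeze-thaw cell lysate supernatant was measured by kit.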
# [9] = tested on: neuropathic pain in mice (mechanical stimulus); assay: Neuropathic pain model (SNL), mechanical pain threshold (von Frey); type: in vivo
# [10] = tested on: inflammatory pain in mice (mechanical stimulus)
# Protocol: (§1) Meller method was employed. Skin around the […] planta was disinfect with 75% ethanol, and 10 μl Complete Freund's adjuvant (CFA) was injected subcutaneously in planta of right hind limb. The planta was gently pressed with a dry cotton ball after the injection to avoid liquid spill along the pinhole. Mice would usually return to normal within a few minutes. CFA-induced inflammatory pain is a widely used chronic pain model.
# [11] = tested on: inflammatory pain in mice (thermal radiation stimulus)
# Protocol: as §1
# Animals' planta were stimulated with infrared radiator.
# CFA was injected in the planta of the mice whose latency baseline of thermal pain paw response was determined to induce inflammatory pain. […] Latencies of paw withdraw response to thermal pain were measured 0.5, 1, 4, 8, 10 and 24 hours after administration.
# [12] = tested on: acute focal cerebral ischemia/reperfusion injury in rats; assay: MCAO focal cerebral ischemia/reperfusion injury: infarct area and neurological defect score; type: in vivo; settings: tail vein 0.75, 1.5 and 3 mg/kg 1 h after reperfusion, 48 h, FIG. 7
# Excerpt: Cerebral ischemia injury was induced by middle cerebral artery occlusion (MCAO) reperfusion model. […] The neck skin was incised along median line, and neck muscle tissue was bluntly dissected to expose and carefully isolate the common carotid artery (CCA) on the right side. The concomitant vagus nerve was gently peeled and ligated, and inward and superficial external carotid artery (ECA) was cut off; pterygopalatine artery, outward branch artery near skull base along internal carotid artery (ICA), was isolated and ligated. […] At this point, the blood supply to the middle cerebral arteries (MCA) including carotid artery and ramus communicans before Waldeyer's ring were all blocked. The depth of the inserted line was determined based on the mark. Extravascular part of the line was ligated and fixed to prevent the line from slippage. After rightside cerebral ischemia 120 minutes, the line was carefully unplugged and the broken end was ligated to achieve reperfusion after ischemia. Suturing the skin, and the rats were returned to cage and fed carefully. The body temperature of the animals was maintained constantly at 37±0.5° C. during surgery.
# The modified Bederson 5-score method was used for evaluation of neurological defect symptoms. Neurological defect symptoms of rats after cerebral ischemia was evaluated by single-blinded method, i.e., test animals were marked by group by the test designers and testers who graded neurological defect symptoms didn't know the animal grouping, after the grading the testers submitted the grading results with various marks to the designers, and the designers unblinded the grouping to obtain scores for each animal in each test group.
# The animals were anesthetized with 10% chloral hydrate 3.5 ml/kg, the brains were taken out after beheading, and olfactory bulb, cerebellum and lower brain stem were removed. Blood on the surface of the brain was washed with normal saline and residual water on the surface was absorbed. The brains were placed at −80° C. for 7 min, and once taken out were sliced at the coronal cross planes vertically to the sight plane with 2 mm intervals between the slices. The brain slices were immersed in a water bath (37° C., 90 min) containing 20 g/L TTC dye freshly prepared with 0.2 mol/L pH 7.4˜7.8 PBS, and normal brain tissues were stained crimson while ischemic brain tissues were pale. After the tissues were washed with normal saline, the brain slices were rapidly aligned in a row from front to back in order, and the surface residual water was absorbed to dry surface, then photographed. Statistics of the pictures were carried on using image analysis software, and ischemic area (white area) and total area on the right side were delineated. The percentage of cerebral infarct area was calculated using the following formula.
# Neurological deficit symptoms were evaluated 48 h after the cerebral ischemia, then the animals were sacrificed and the brains were taken out, TTC stained, and infarct areas of the stained brain slices were measured.
# The rats were under MCAO for 120 min, and 1 h after reperfusion the rats were injected through tail vein with ZL006-06, ZL006-16, ZL006-28, ZL006-30, ZL006-43, ZL006-82 or an equivalent volume of solvent, wherein the doses of each drug were 1.5 mg/kg, and the volume of injected drugs was 0.1 ml/100 g weight. Neurological deficit symptoms were evaluated 48 h after the cerebral ischemia, then the animals were sacrificed and the brains were taken out, TTC stained, and infarct areas of the stained brain slices were measured.
# [13] = target: nNOS-PSD-95 coupling (Mus musculus, UniProt Q9Z0J4); settings: FIG. 1
# Sequence of nNOS-PSD-95 coupling (Q9Z0J4 whole entry): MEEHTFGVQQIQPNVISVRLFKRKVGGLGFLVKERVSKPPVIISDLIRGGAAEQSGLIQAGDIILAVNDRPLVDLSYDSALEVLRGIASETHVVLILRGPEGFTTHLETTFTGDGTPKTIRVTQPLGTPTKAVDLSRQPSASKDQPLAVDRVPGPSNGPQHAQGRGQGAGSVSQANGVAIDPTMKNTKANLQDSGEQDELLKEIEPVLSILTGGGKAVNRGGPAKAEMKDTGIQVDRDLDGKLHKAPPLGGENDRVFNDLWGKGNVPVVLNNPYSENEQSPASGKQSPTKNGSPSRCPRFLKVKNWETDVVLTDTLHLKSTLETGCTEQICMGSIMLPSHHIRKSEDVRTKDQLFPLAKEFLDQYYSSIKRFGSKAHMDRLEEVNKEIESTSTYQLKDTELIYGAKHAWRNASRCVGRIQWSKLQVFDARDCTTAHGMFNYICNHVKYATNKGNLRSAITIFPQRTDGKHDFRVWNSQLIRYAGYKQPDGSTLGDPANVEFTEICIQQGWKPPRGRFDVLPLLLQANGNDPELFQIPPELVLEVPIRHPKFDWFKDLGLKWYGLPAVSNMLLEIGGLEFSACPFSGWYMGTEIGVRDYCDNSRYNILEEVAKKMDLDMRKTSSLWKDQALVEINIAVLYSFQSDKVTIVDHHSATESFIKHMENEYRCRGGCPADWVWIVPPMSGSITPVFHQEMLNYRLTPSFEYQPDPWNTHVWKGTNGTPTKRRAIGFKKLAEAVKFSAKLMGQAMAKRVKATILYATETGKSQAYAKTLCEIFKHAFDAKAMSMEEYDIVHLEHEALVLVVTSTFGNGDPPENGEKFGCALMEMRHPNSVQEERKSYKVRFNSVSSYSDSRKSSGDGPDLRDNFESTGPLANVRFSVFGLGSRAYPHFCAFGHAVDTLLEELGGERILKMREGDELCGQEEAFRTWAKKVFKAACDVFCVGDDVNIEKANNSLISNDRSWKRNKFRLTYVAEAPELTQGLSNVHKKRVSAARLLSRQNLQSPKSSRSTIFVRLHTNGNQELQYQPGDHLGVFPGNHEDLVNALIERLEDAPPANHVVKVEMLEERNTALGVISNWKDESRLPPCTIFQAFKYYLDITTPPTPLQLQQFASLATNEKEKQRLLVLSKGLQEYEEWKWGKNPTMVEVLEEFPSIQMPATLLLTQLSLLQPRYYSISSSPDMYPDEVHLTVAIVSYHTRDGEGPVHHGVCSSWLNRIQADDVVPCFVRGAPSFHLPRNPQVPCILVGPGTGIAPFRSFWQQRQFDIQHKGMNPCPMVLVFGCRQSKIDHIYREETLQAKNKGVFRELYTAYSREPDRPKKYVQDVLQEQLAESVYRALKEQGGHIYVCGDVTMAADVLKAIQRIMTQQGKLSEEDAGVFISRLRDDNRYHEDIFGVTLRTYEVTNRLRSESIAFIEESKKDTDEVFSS
# Protocol: Neonatal mice within 24 h were disinfected successively with benzalkonium bromide solution and 75% ethanol, followed by the disinfection to head skin with povidone-iodine. The head was fixed by clamping the neck skin by left hand, while the skull was cut open with an ophthalmic tweezer by right hand, exposing two cerebral hemispheres. The two pieces of cerebral cortex was placed in Petri dishes containing D-Hank's solution; the meninges was removed. The prepared cerebral cortex was added into a 5 ml small beaker, cut into small pieces of tissue less than 1 mm^3 using ophthalmic scissors and the pieces of tissue were transferred to a 50 ml conical flask. The well-incubated 0.125% Trypsin solution was added into a 20 ml conical flask and mixed thoroughly. After the digestion for 10 min in an incubator (37° C.), the suspension was gently pipetted with a pipette until the absence of tissue pieces. The cell suspension was transferred to a 200-mesh sieve to filter, and the enzyme reaction of the filtrate was terminated by DMEM/F12 (1:1) medium containing 10% FBS. The filtrate was centrifuged (2500 rp, 3 min) and the supernatant was removed. […]
# [14] = tested on: neuropathic pain in mice (thermal radiation stimulus); assay: Neuropathic pain model (SNL), thermal pain threshold
# Protocol: Neuropathic pain model was prepared by segmental spinal nerve ligation (SNL). The mice were anesthetized by intraperitoneal injection of 2% chloral hydrate (0.2 mL/10 g), after the loss of righting reflex, the mice were fixed in the prone position. The model was prepared by the method of Kim and Chung: a median skin incision with about 3-5 cm length in L4-S2 level of the mouse back was bluntly dissected, the muscles next to the vertebrae till the sixth lumbar protruding were separated, the L5/L6 joint protruding on the right side was exposed and excised, and L6 processes transverses was partially splitted so that the L4-L6 spinal nerves on the right side were exposed. L5 nerve was gently isolated and tightly ligated with 5-0 silk thread. Then the incision was sutured layer by layer, the skin was disinfected with povidone iodine, and the mice were continued to be raised. Postoperative gait deformity appeared in the animals, and in addition to mild valgus and toes were held together in surgery side hind limb, there was no other abnormal change.
# When measuring paw withdrawal threshold (PWT) responding to thermal stimulus, the latency of paw withdrawal response was determined using pain measurement system of plantar thermal stimulus (UGO BASILE, Italy) which was commercially available. The mice were placed in a small plastic chamber located above a glass platform. The temperature of glass platform was controlled at 22° C. Animals' planta were stimulated with infrared radiator. To prevent tissue damage, the stimulated duration was limited within 30 seconds. If the stimulation time overran, the infrared radiator was automatically turned off. The pain threshold is represented by the time from starting stimulation to the foot removing from the glass platform. To ensure the consistency of the experiment, the sites of the animals receiving the thermal stimulus all located in the center of the hind planta.
# When the drug was administrated by gavage, the objective compounds milled into a fine powder were suspended with water and sodium carboxymethyl cellulose, wherein the amount of sodium carboxymethyl cellulose was 1%. After the suspension, the objective compounds should be suspended homogeneously in the liquid, and no granular objects would settle or flocculently suspend in the liquid.
# SNL surgery was conducted on the mice whose baseline of threshold for 50% paw withdrawal response to mechanical stimulus was determined. […] Latencies of thermal pain responses were measured 0.5, 1, 2, 4, 6, 8, 10, 12 and 24 hours after administration.
# [15] = 60 and 90 mg/kg groups, at peak time points of efficacy
# [16] = gavage, SNL, mechanical stimulus
# [17] = gavage 50 mg/kg, CFA, mechanical
smiles,measurement,setting,value
"O=C(O)c1ccc(NCc2cc(Cl)cc(Cl)c2O)cc1O [ZL006, 4-N-(2-hydroxy-3,5-dichlorobenzyl) aminosalicylic acid]",NMDAR-mediated pathological NO release,[1],reduce
same,neuroprotective effect against glutamate-induced neuronal injury,[2],significant neuroprotective effect
same,animal neurological deficits,[3],improve
same,infarct volume,[3],reduce
same,"learning and memory impairment, behavioral abnormalities and other side effects",[4],does not cause
"Oc1c(Cl)cc(Cl)cc1CNc1ccc2[nH]nnc2c1 [IC87201, 2-[(1H-benzotriazole-5-amino)methyl]-4,6-dichlorophenol]",mechanical hyperalgesia and thermal hyperalgesia,[5],significant inhibitory effects
C[C@]12N[C@H](Cc3ccccc31)c1ccccc12 [MK-801],mechanical allodynia and thermal hyperalgesia,[6],significantly alleviate
NC(CCCP(=O)(O)O)C(=O)O (stereo not shown) [AP-5],CFA-induced muscle hyperalgesia,[7],reduce
"CC1(C)C2CCC1(C)C(OC(=O)c1ccc(NCc3cc(Cl)cc(Cl)c3O)cc1O)C2 (stereo not shown) [ZL006-05, bornyl-2-hydroxy-4-(2-hydroxy-3,5-dichlorobenzyl) aminobenzoate]",Inhibition of LDH release (%),[8],62.4%
same,AUC of threshold-time curve relative to control group,"[9]; 90 mg/kg group, 12 h after administration, FIG. 2B",about six
same,pain threshold relative to control group,[9]; [15],about 20 times
same,threshold of paw withdrawal response to mechanical stimulus,"[9]; gavage 10, 30, 60 and 90 mg/kg, day 7 after SNL, dose dependent, FIG. 2A",significantly increased
same,dose that showed significant efficacy,[9]; [16],10 mg/kg
same,efficacy duration of a single dose,[9]; [16],about 8 hours
same,peak time of efficacy after administration,[9]; [16],2 h
same,time to show efficacy after administration,[9]; [16],less than 0.5 h
same,area under the curve of threshold relative to control group,"[10]; 50 mg/kg, within 10 h after administration, FIG. 4C",approximately 4 times
same,efficacy duration of a single dose,[10]; [17],about 6 hours
same,time after administration at which significant efficacy was shown,[10]; [17],1 h
same,threshold of paw withdrawal response to mechanical stimulus,"[10]; gavage 50 mg/kg, CFA, FIG. 4B",significantly increased
same,area under the curve relative to control group,"[11]; 50 mg/kg, within 10 h after administration, FIG. 5C",approximately 2 times
same,duration of significant analgesic effect of a single dose,"[11]; gavage 50 mg/kg, CFA, thermal",about 10 hours
same,time after administration at which significant efficacy was shown,"[11]; gavage 50 mg/kg, CFA, thermal",1 h
same,latencies of paw withdraw response to thermal pain,"[11]; gavage 50 mg/kg, CFA, FIG. 5B",significantly prolonged
same,neurological defect symptoms,[12],significantly alleviated
same,cerebral infarct area,"[12]; MCAO 120 min, dose-dependent",significantly reduced
same,glutamate-induced coupling of nNOS and PSD-95,"[13]; 10 μM, 50 μM glutamate and 30 μM glycine 30 minutes",significantly inhibited
same,nNOS-PSD-95 coupling in normal cultured neurons,"[13]; normal cultured neurons, no glutamate",didn't affect
same,AUC of latency-time curve relative to control group,"[14]; 60 mg/kg group, 10 h after administration, FIG. 3B",about two
same,latency relative to control group,[14]; [15],about 2.5 times
same,latency of paw withdrawal response to thermal pain,"[14]; gavage 10, 30, 60 and 90 mg/kg, day 7 after SNL, dose dependent, FIG. 3A",significantly increased
same,dose that showed significant efficacy,"[14]; gavage, SNL, thermal pain",10 mg/kg
same,efficacy duration of a single dose,"[14]; gavage, SNL, thermal pain",about 8 hours
same,time to show efficacy after administration,"[14]; gavage, SNL, thermal pain",less than 0.5 h
